The subject of the assay is P388 leukemia ip, CD2F1 mice, survival T/C. Description: NCI In Vivo Anticancer Drug Screen. Data for tumor model P388 Leukemia (intraperitoneal) in CD2F1 (CDF1) mice. The following applies: endpoint: median survival time, higher = longer survival. The method, boiled down: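 Mice carrying the transplanted tumor received test compound or vehicle. Survival was recorded in each group, and the value is the treated-group measurement divided by that of the vehicle-treated control group.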

Where [1] appears, read: dose: 50.0 mg/kg/injection, schedule: Q01DX009 (ip), vehicle: Klucel (hydroxypropylcellulose) (HPC).
Where [2] appears, read: dose: 100.0 mg/kg/injection, schedule: Q01DX009 (ip), vehicle: Klucel (hydroxypropylcellulose) (HPC).
[3] abbreviates: dose: 200.0 mg/kg/injection, schedule: Q01DX009 (ip), vehicle: Klucel (hydroxypropylcellulose) (HPC).
The mark [4] stands for this setting: dose: 50.0 mg/kg/injection, schedule: Q01DX009 (ip), vehicle: saline.
Setting [5] is: dose: 100.0 mg/kg/injection, schedule: Q01DX009 (ip), vehicle: saline.
[6] abbreviates: dose: 200.0 mg/kg/injection, schedule: Q01DX009 (ip), vehicle: saline.
Where [7] appears, read: dose: 60.0 mg/kg/injection, schedule: Q01DX005 (ip), vehicle: Klucel (hydroxypropylcellulose) (HPC).
The mark [8] stands for this setting: dose: 120.0 mg/kg/injection, schedule: Q01DX005 (ip), vehicle: Klucel (hydroxypropylcellulose) (HPC).
[9] abbreviates: dose: 240.0 mg/kg/injection, schedule: Q01DX005 (ip), vehicle: Klucel (hydroxypropylcellulose) (HPC).
Setting [10] is: dose: 50.0 mg/kg/injection, schedule: Q01DX005 (ip), vehicle: saline with Tween-80.
Setting [11] is: dose: 100.0 mg/kg/injection, schedule: Q01DX005 (ip), vehicle: saline with Tween-80.
The mark [12] stands for this setting: dose: 6.25 mg/kg/injection, schedule: Q01DX009 (ip), vehicle: saline with Tween-80.
The mark [13] stands for this setting: dose: 12.5 mg/kg/injection, schedule: Q01DX009 (ip), vehicle: saline with Tween-80.
Where [14] appears, read: dose: 12.5 mg/kg/injection, schedule: Q01DX009 (ip), vehicle: saline.
The mark [15] stands for this setting: dose: 25.0 mg/kg/injection, schedule: Q01DX009 (ip), vehicle: saline.
The mark [16] stands for this setting: dose: 100.0 mg/kg/injection, schedule: Q04DX003 (ip), vehicle: saline with Tween-80.
The mark [17] stands for this setting: dose: 200.0 mg/kg/injection, schedule: Q04DX003 (ip), vehicle: saline with Tween-80.
The mark [18] stands for this setting: dose: 400.0 mg/kg/injection, schedule: Q04DX003 (ip), vehicle: saline with Tween-80.
Setting [19] is: dose: 50.0 mg/kg/injection, schedule: Q01DX009 (ip), vehicle: saline with Tween-80.
The mark [20] stands for this setting: dose: 60.0 mg/kg/injection, schedule: Q01DX005 (ip), vehicle: saline with Tween-80.
The mark [21] stands for this setting: dose: 120.0 mg/kg/injection, schedule: Q01DX005 (ip), vehicle: saline with Tween-80.
Setting [22] is: dose: 240.0 mg/kg/injection, schedule: Q01DX005 (ip), vehicle: saline with Tween-80.

The structures appear in SMILES notation. “And” between values parts separate entries of the source, which are not always exact repeats. Equal values may be shown once. Toxic doses and inconclusive results are not listed.

Regarding `CCCCCCC(O)CCCCCC`, the T/C runs as follows: (dose: 100.0 mg/kg/injection, schedule: Q04DX003 (ip), vehicle: other) 104 % of control; (dose: 200.0 mg/kg/injection, schedule: Q04DX003 (ip), vehicle: other) 109 % of control; (dose: 400.0 mg/kg/injection, schedule: Q04DX003 (ip), vehicle: other) 100 % of control.
Regarding `CNc1ccc(CN2CCCCC2)cc1C`, the T/C reads like this: (dose: 0.93 mg/kg/injection, schedule: Q01DX005 (ip), vehicle: Klucel (hydroxypropylcellulose) (HPC)) 100 % of control and 92 % of control; (dose: 1.87 mg/kg/injection, schedule: Q01DX005 (ip), vehicle: Klucel (hydroxypropylcellulose) (HPC)) 100 % of control and 97 % of control; (dose: 3.75 mg/kg/injection, schedule: Q01DX005 (ip), vehicle: Klucel (hydroxypropylcellulose) (HPC)) 99 % of control and 95 % of control and 96 % of control.
For `COc1ccc(-n2c(C)nc3ccccc3c2=O)cc1CN(CCCl)CCCl`, the T/C (dose: 25.0 mg/kg/injection, schedule: Q04DX002 (ip), vehicle: saline with Tween-80) is 97 % of control; the T/C (dose: 50.0 mg/kg/injection, schedule: Q04DX002 (ip), vehicle: saline with Tween-80) was 109 % of control; the T/C (dose: 100.0 mg/kg/injection, schedule: Q04DX002 (ip), vehicle: saline with Tween-80) is 100 % of control.
Regarding `CCCC(=O)C(=O)c1ccc(O)cc1O`, the T/C by setting is: under setting [1], 108 % of control; under setting [2], 116 % of control; under setting [3], 119 % of control.
In the case of `CC1C2OC(=O)C1(C)c1ccccc1C2=O` (stereo not given), the T/C is 109 % of control (dose: 12.5 mg/kg/injection, schedule: Q01DX001 (ip), vehicle: Klucel (hydroxypropylcellulose) (HPC)); 99 % of control (dose: 25.0 mg/kg/injection, schedule: Q01DX001 (ip), vehicle: Klucel (hydroxypropylcellulose) (HPC)); 103 % of control (dose: 50.0 mg/kg/injection, schedule: Q01DX001 (ip), vehicle: Klucel (hydroxypropylcellulose) (HPC)).
With `OCC1OC2NC(=S)OC2C1O` (stereo not given), the T/C under setting [4] was 100 % of control, the T/C under setting [5] was 100 % of control and the T/C under setting [6] was 95 % of control.
Consider `CC1(C)SC(C)(c2ccc[nH]2)N(c2nccs2)C1=O` (stereo not given), for which the T/C is, setting by setting: under setting [7], 106 % of control; under setting [8], 104 % of control; under setting [9], 102 % of control.
Regarding `CCN(CC)CCC(=O)c1cccc2ccccc12`, the T/C (dose: 25.0 mg/kg/injection, schedule: Q01DX005 (ip), vehicle: saline with Tween-80) was 100 % of control; the T/C under setting [10] is 106 % of control; the T/C under setting [11] is 102 % of control.
Take `CC(=O)C(N)CC(C)C` (stereo not given): the T/C (dose: 50.0 mg/kg/injection, schedule: Q01DX005 (ip), vehicle: saline) is 98 % of control; the T/C (dose: 100.0 mg/kg/injection, schedule: Q01DX005 (ip), vehicle: saline) was 100 % of control; the T/C (dose: 200.0 mg/kg/injection, schedule: Q01DX005 (ip), vehicle: saline) is 107 % of control.
Regarding `CSc1ccc2c(c1)C(N1CCN(C)CC1)Cc1ccccc1S2` (stereo not given), the T/C is, setting by setting: under setting [12], 106 % of control and 107 % of control and 114 % of control; under setting [13], 103 % of control and 107 % of control and 95 % of control; under setting [14], 117 % of control; (dose: 25.0 mg/kg/injection, schedule: Q01DX009 (ip), vehicle: saline with Tween-80) 86 % of control and 95 % of control; under setting [15], 118 % of control.
Turning to `CCOc1ccc(N=Nc2c(C)nn(C(N)=S)c2OCC)cc1`, the T/C was 100 % of control (dose: 15.0 mg/kg/injection, schedule: Q01DX005 (ip), vehicle: Klucel (hydroxypropylcellulose) (HPC)) and 97 % of control (dose: 30.0 mg/kg/injection, schedule: Q01DX005 (ip), vehicle: Klucel (hydroxypropylcellulose) (HPC)).
Turning to `CC(=O)C1=C(c2ccccc2)NC(=O)NC1c1ccco1` (stereo not given), the T/C under setting [16] was 95 % of control, the T/C under setting [17] is 95 % of control and the T/C under setting [18] is 90 % of control.
As for `COc1cc(Br)cc(/C=C/[N+](=O)[O-])c1OC`, under setting [19], the T/C is 115 % of control.
Take `O=S(=O)(O)c1cc(O)c2c(N=Cc3ccccc3O)c(S(=O)(=O)O)ccc2c1`: the T/C under setting [20] was 98 % of control, the T/C under setting [21] is 97 % of control and the T/C under setting [22] is 95 % of control.
With `CCCCNC(=O)Nc1ccc(C(=O)OCCCC)cc1`, the T/C is 100 % of control under setting [16] and 90 % of control under setting [17].
For `O=C1N=CC2(N=N2)C(=O)N1`, the T/C was 161 % of control (dose: 3.75 mg/kg/injection, schedule: Q01DX005 (ip), vehicle: saline with Tween-80); 155 % of control and 168 % of control (dose: 7.5 mg/kg/injection, schedule: Q01DX005 (ip), vehicle: saline with Tween-80); 178 % of control and 190 % of control (dose: 15.0 mg/kg/injection, schedule: Q01DX005 (ip), vehicle: saline with Tween-80).
As for `O=C1N2CCCC2(S)C(=O)N2CCCC12[S-].[Zn]` (stereo not given), the T/C reads like this: under setting [14], 95 % of control and 97 % of control; under setting [15], 100 % of control and 90 % of control; under setting [4], 108 % of control and 119 % of control; under setting [5], 124 % of control and 95 % of control.
As for `O=c1cc[nH]c(=S)[nH]1.[Pd]`, the T/C by setting is: under setting [15], 89 % of control; under setting [4], 96 % of control; under setting [5], 91 % of control; under setting [6], 91 % of control.
Take `Cn1c2nc(=O)n(-c3ccccc3)c(=O)c-2nc2c1CCCC2`: the T/C is 100 % of control (dose: 3.13 mg/kg/injection, schedule: Q01DX009 (ip), vehicle: saline with Tween-80); 106 % of control and 109 % of control under setting [12]; 106 % of control and 116 % of control under setting [13]; 110 % of control under setting [19]; 115 % of control (dose: 100.0 mg/kg/injection, schedule: Q01DX009 (ip), vehicle: saline with Tween-80); 116 % of control (dose: 200.0 mg/kg/injection, schedule: Q01DX009 (ip), vehicle: saline with Tween-80).
Turning to `COC(=O)NCN(Cc1ccccc1)C(=O)CCCCCN`, the T/C reads like this: under setting [20], 104 % of control; under setting [21], 100 % of control; under setting [22], 98 % of control.
Take `CCC1(c2ccccc2)C(=O)NC(=O)N(CN2CCOCC2)C1=O` (stereo not given): the T/C under setting [7] is 100 % of control, the T/C under setting [8] is 100 % of control and the T/C under setting [9] is 98 % of control.
As to `C[n+]1c(-c2ccc(/C=N/NC(=O)c3ccc(C(=O)N/N=C/c4ccc(-c5cn6ccccc6[n+]5C)cc4)c(O)c3O)cc2)cn2ccccc21`, the T/C reads like this: under setting [10], 107 % of control; under setting [11], 96 % of control.
For the molecule `O=C(/C=C/c1cccc(Cl)c1)c1ccccc1`, the T/C by setting is: under setting [1], 102 % of control; under setting [2], 104 % of control; (dose: 150.0 mg/kg/injection, schedule: Q01DX009 (ip), vehicle: Klucel (hydroxypropylcellulose) (HPC)) 110 % of control; under setting [3], 122 % of control.
On to `BrC1C2CCC3OC3CCC12` (stereo not given), for which the T/C reads like this: under setting [16], 101 % of control; under setting [17], 92 % of control; under setting [18], 97 % of control.

Source of the values: PubChem BioAssay AID330 (DTP/NCI, 2004).
